{"source": "patent US20150126467A1", "about": "“USE OF ALGINATE OLIGOMERS TO ENHANCE THE EFFECTS OF ANTIFUNGAL AGENTS” (AlgiIPharma AS, priority 2011, published 2015)", "key": {"[1]": {"system": "various Aspergillus species", "assay": "Robotic MIC assay, summary over species (Example 4)", "assay_type": "cell-based", "settings": "Aspergillus species tested", "description": "Aspergillus sp. was grown at 30° C. for 96 h on YM-agar. Spores and aerial mycelium was cut out from the agar, suspended in 1 ml YM-broth and dispersed with glass beads (1 mm) in a mini bead beater for 2 min. Glycerol was added to the suspension to 10% and frozen at −80° C.\nEach batch of frozen stock culture was then characterized in separate growth experiments using Mueller-Hinton broth to determine the minimum amount of inoculum giving satisfactory growth after 48 h under the conditions relevant for the MIC assay. This inoculation procedure is used in order to reduce day to day variation in bioassays.\nRobotic minimum inhibitory concentration (MIC) assay was performed as follows. OligoG CF-5/20 was dissolved in medium (Mueller-Hinton broth) to 1.25 times of the desired assay concentrations (2, 6 and 10%). […].\nTwo-fold serial dilutions of antifungal agents were made in medium with different concentrations of OligoG CF-5/20, and the solutions were placed in four parallel wells in Nunc 384-well micro plates (30 μl per well in Nunc 242757 microplates). A group of 8 wells with no addition of antifungal agents for each OligoG CF-5/20 concentration was included on each micro plate as growth reference. Each well in the 384-well assay plates was added 7.5 μl of the MH medium inoculated with frozen stock culture of the relevant strains.\nThe microplates were placed in plastic bags and incubated without shaking at 34° C. The optical density at 600 nm in the microwells was measured after approximately 24 and 48 hours of incubation. […]"}, "[2]": {"system": "C. parapsillosis ATCC 22019T", "assay": "Robotic MIC assay, Candida strains (Example 2)", "assay_type": "cell-based, Candida parapsilosis", "settings": "48 h, Mueller-Hinton broth", "description": "(§1) A robotic MIC Assay was performed as follows. OligoG CF-5/20 were dissolved in medium (Mueller-Hinton broth or M19 broth depending on experiment) to 1.25 times of the desired assay concentrations (2, 6 and 10%). The antifungal agents under test were dissolved in medium without OligoG CF-5/20 and in medium with OligoG CF-5/20 at a concentration of 1.25 times the highest desired assay concentrations. For experiments where the effect of adding different concentrations of Na^+ was investigated, NaCl was dissolved in medium to the desired concentrations (10, 30 and 50 mM).\n(§2) Two-fold serial dilutions of antifungal agents were made in medium with different concentrations of OligoG CF-5/20, and the solutions were placed in four parallel wells in Nunc 384-well micro plates (30 μl per well in Nunc 242757 microplates). A group of 8 wells with no addition of antifungal agents for each OligoG CF-5/20 concentration was included on each microplate as growth reference. To each well in the 384-well assay plates was added 7.5 μl of medium inoculated with a frozen stock culture of Candida albicans (strain CCUG 39343).\n(§3) The micro plates were placed in plastic bags and incubated without shaking at 34° C. The optical density at 600 nm in the microwells was measured after approximately 13, 18, 24 and 34 hours of incubation, and the relative growth yield in each well was calculated based on the growth in the reference groups.\n(§4) The robotic assay described in Example 1 was employed in this Example. Strains were grown in Mueller-Hinton broth (LAB114 from Lab M Limited) and MIC values (μg ml-1) were determined for each antifungal after incubation for 48 h in the presence of 0, 2, 6 and 10% OligoG CF-5/20 G-fragments. […] OligoG CF-5/20 G-fragments were provided by AlgiPharma AS, Norway.\n(§5) Candida strains used were as follows: • C. albicans CCUG 39343 (strain from culture collection) • C. parapsillosis ATCC 22019T (strain from culture collection) • C. krusei 141/03 (candidosis) • C. krusei 249/03(2) (ulceration) • C. lusitaniae 994/01(2) (candidosis) • C. tropicalis 12 (vaginal) • C. tropicalis 75 (vaginal) • C. tropicalis 519468 (urinary) • C. tropicalis 544123 (urinary) • C. tropicalis 250/03 (candidosis) • C. tropicalis AG1 (oral) • C. tropicalis T2.2 (oral)"}, "[3]": {"system": "C. tropicalis 250/03 (candidosis)", "assay": "Robotic MIC assay, Candida strains (Example 2)", "assay_type": "cell-based", "settings": "C. tropicalis 250/03 Candiosis, 48 h, Mueller-Hinton broth", "description": "as §1, §2, §3, §4, §5"}, "C. albicans CCUG 39343": {"system": "C. albicans CCUG 39343", "assay": "Robotic MIC assay, Candida strains (Example 2)", "assay_type": "cell-based", "settings": "48 h, Mueller-Hinton broth", "description": "as §1, §2, §3, §4, §5"}, "[4]": {"system": "C. krusei 249/03(2) (ulceration)", "assay": "Robotic MIC assay, Candida strains (Example 2)", "assay_type": "cell-based", "settings": "48 h, Mueller-Hinton broth", "description": "as §1, §2, §3, §4, §5"}, "[5]": {"system": "C. krusei 141/03 (candidosis)", "assay": "Robotic MIC assay, Candida strains (Example 2)", "assay_type": "cell-based", "settings": "48 h, Mueller-Hinton broth", "description": "as §1, §2, §3, §4, §5"}, "[6]": {"system": "C. tropicalis 544123 (urinary)", "assay": "Robotic MIC assay, Candida strains (Example 2)", "assay_type": "cell-based", "settings": "48 h, Mueller-Hinton broth", "description": "as §1, §2, §3, §4, §5"}, "[7]": {"system": "C. tropicalis 519468 (urinary)", "assay": "Robotic MIC assay, Candida strains (Example 2)", "assay_type": "cell-based", "settings": "48 h, Mueller-Hinton broth", "description": "as §1, §2, §3, §4, §5"}, "[8]": {"system": "C. tropicalis 75 (vaginal)", "assay": "Robotic MIC assay, Candida strains (Example 2)", "assay_type": "cell-based", "settings": "48 h, Mueller-Hinton broth", "description": "as §1, §2, §3, §4, §5"}, "[9]": {"system": "C. lusitaniae 994/01(2) (candidosis)", "assay": "Robotic MIC assay, Candida strains (Example 2)", "assay_type": "cell-based", "settings": "48 h, Mueller-Hinton broth", "description": "as §1, §2, §3, §4, §5"}, "[10]": {"system": "C. tropicalis T2.2 (oral)", "assay": "Robotic MIC assay, Candida strains (Example 2)", "assay_type": "cell-based", "settings": "48 h, Mueller-Hinton broth", "description": "as §1, §2, §3, §4, §5"}, "[11]": {"system": "C. tropicalis 12 (vaginal)", "assay": "Robotic MIC assay, Candida strains (Example 2)", "assay_type": "cell-based", "settings": "48 h, Mueller-Hinton broth", "description": "as §1, §2, §3, §4, §5"}, "C. tropicalis AG1 (oral)": {"system": "C. tropicalis AG1 (oral)", "assay": "Robotic MIC assay, Candida strains (Example 2)", "assay_type": "cell-based", "settings": "48 h, Mueller-Hinton broth", "description": "as §1, §2, §3, §4, §5"}}}
{"smiles": "Clc1ccc(COC(Cn2ccnc2)c2ccc(Cl)cc2Cl)c(Cl)c1", "note": "(centres unmarked) [Miconazole, miconazole]", "values": [{"measurement": "effect of addition of OligoG CF-5/20 on MIC values", "setting": "[1]", "value": "reduction in MIC values"}]}
{"smiles": "C[C@@H]1[C@H](O)[C@@H](C)/C=C/C=C/CC/C=C/C=C/C=C/C=C/C(O[C@H]2O[C@H](C)[C@@H](O)[C@H](N)[C@@H]2O)CC2O[C@](O)(CC(O)C(O)CCC(O)CC(O)CC(O)CC(=O)O[C@H]1C)CC(O)C2C(=O)O", "note": "(some centres unmarked) [Nystatin, nystatin]", "values": [{"measurement": "Minimum Inhibitory Concentration (MIC)", "setting": "[2]; 0% OligoG", "value": 4, "unit": "µg/mL"}, {"measurement": "Minimum Inhibitory Concentration (MIC)", "setting": "[2]; 2% OligoG", "value": 2, "unit": "µg/mL"}, {"measurement": "Minimum Inhibitory Concentration (MIC)", "setting": "[2]; 6% OligoG", "value": 1, "unit": "µg/mL"}, {"measurement": "Minimum Inhibitory Concentration (MIC)", "setting": "[2]; 10% OligoG", "value": 0.5, "unit": "µg/mL"}, {"measurement": "effect of addition of OligoG CF-5/20 on MIC values", "setting": "[1]", "value": "reduction in MIC values"}, {"measurement": "Minimum Inhibitory Concentration (MIC)", "setting": "[3]; 0% OligoG", "value": 8, "unit": "µg/mL"}, {"measurement": "Minimum Inhibitory Concentration (MIC)", "setting": "[3]; 2% OligoG", "value": 4, "unit": "µg/mL"}, {"measurement": "Minimum Inhibitory Concentration (MIC)", "setting": "[3]; 6% OligoG", "value": 2, "unit": "µg/mL"}, {"measurement": "Minimum Inhibitory Concentration (MIC)", "setting": "[3]; 10% OligoG", "value": 1, "unit": "µg/mL"}, {"measurement": "Minimum Inhibitory Concentration (MIC)", "setting": "C. albicans CCUG 39343; 0% OligoG", "value": 8, "unit": "µg/mL"}, {"measurement": "Minimum Inhibitory Concentration (MIC)", "setting": "C. albicans CCUG 39343; 2% OligoG", "value": 8, "unit": "µg/mL"}, {"measurement": "Minimum Inhibitory Concentration (MIC)", "setting": "C. albicans CCUG 39343; 6% OligoG", "value": 4, "unit": "µg/mL"}, {"measurement": "Minimum Inhibitory Concentration (MIC)", "setting": "C. albicans CCUG 39343; 10% OligoG", "value": 2, "unit": "µg/mL"}, {"measurement": "Minimum Inhibitory Concentration (MIC)", "setting": "[4]; 0% OligoG", "value": 8, "unit": "µg/mL"}, {"measurement": "Minimum Inhibitory Concentration (MIC)", "setting": "[4]; 2% OligoG", "value": 8, "unit": "µg/mL"}, {"measurement": "Minimum Inhibitory Concentration (MIC)", "setting": "[4]; 6% OligoG", "value": 8, "unit": "µg/mL"}, {"measurement": "Minimum Inhibitory Concentration (MIC)", "setting": "[4]; 10% OligoG", "value": 4, "unit": "µg/mL"}, {"measurement": "Minimum Inhibitory Concentration (MIC)", "setting": "[5]; 0% OligoG", "value": 8, "unit": "µg/mL"}, {"measurement": "Minimum Inhibitory Concentration (MIC)", "setting": "[5]; 2% OligoG", "value": 4, "unit": "µg/mL"}, {"measurement": "Minimum Inhibitory Concentration (MIC)", "setting": "[5]; 6% OligoG", "value": 2, "unit": "µg/mL"}, {"measurement": "Minimum Inhibitory Concentration (MIC)", "setting": "[5]; 10% OligoG", "value": 2, "unit": "µg/mL"}, {"measurement": "Minimum Inhibitory Concentration (MIC)", "setting": "[6]; 0% OligoG", "value": 8, "unit": "µg/mL"}, {"measurement": "Minimum Inhibitory Concentration (MIC)", "setting": "[6]; 2% OligoG", "value": 8, "unit": "µg/mL"}, {"measurement": "Minimum Inhibitory Concentration (MIC)", "setting": "[6]; 6% OligoG", "value": 2, "unit": "µg/mL"}, {"measurement": "Minimum Inhibitory Concentration (MIC)", "setting": "[6]; 10% OligoG", "value": 2, "unit": "µg/mL"}, {"measurement": "Minimum Inhibitory Concentration (MIC)", "setting": "[7]; 0% OligoG", "value": 16, "unit": "µg/mL"}, {"measurement": "Minimum Inhibitory Concentration (MIC)", "setting": "[7]; 2% OligoG", "value": 8, "unit": "µg/mL"}, {"measurement": "Minimum Inhibitory Concentration (MIC)", "setting": "[7]; 6% OligoG", "value": 4, "unit": "µg/mL"}, {"measurement": "Minimum Inhibitory Concentration (MIC)", "setting": "[7]; 10% OligoG", "value": 2, "unit": "µg/mL"}, {"measurement": "Minimum Inhibitory Concentration (MIC)", "setting": "[8]; 0% OligoG", "value": 8, "unit": "µg/mL"}, {"measurement": "Minimum Inhibitory Concentration (MIC)", "setting": "[8]; 2% OligoG", "value": 8, "unit": "µg/mL"}, {"measurement": "Minimum Inhibitory Concentration (MIC)", "setting": "[8]; 6% OligoG", "value": 8, "unit": "µg/mL"}, {"measurement": "Minimum Inhibitory Concentration (MIC)", "setting": "[8]; 10% OligoG", "value": 2, "unit": "µg/mL"}, {"measurement": "Minimum Inhibitory Concentration (MIC)", "setting": "[9]; 0% OligoG", "value": 8, "unit": "µg/mL"}, {"measurement": "Minimum Inhibitory Concentration (MIC)", "setting": "[9]; 2% OligoG", "value": 8, "unit": "µg/mL"}, {"measurement": "Minimum Inhibitory Concentration (MIC)", "setting": "[9]; 6% OligoG", "value": 2, "unit": "µg/mL"}, {"measurement": "Minimum Inhibitory Concentration (MIC)", "setting": "[9]; 10% OligoG", "value": 1, "unit": "µg/mL"}, {"measurement": "Minimum Inhibitory Concentration (MIC)", "setting": "[10]; 0% OligoG", "value": 8, "unit": "µg/mL"}, {"measurement": "Minimum Inhibitory Concentration (MIC)", "setting": "[10]; 2% OligoG", "value": 8, "unit": "µg/mL"}, {"measurement": "Minimum Inhibitory Concentration (MIC)", "setting": "[10]; 6% OligoG", "value": 4, "unit": "µg/mL"}, {"measurement": "Minimum Inhibitory Concentration (MIC)", "setting": "[10]; 10% OligoG", "value": 2, "unit": "µg/mL"}, {"measurement": "Minimum Inhibitory Concentration (MIC)", "setting": "[11]; 0% OligoG", "value": 8, "unit": "µg/mL"}, {"measurement": "Minimum Inhibitory Concentration (MIC)", "setting": "[11]; 2% OligoG", "value": 8, "unit": "µg/mL"}, {"measurement": "Minimum Inhibitory Concentration (MIC)", "setting": "[11]; 6% OligoG", "value": 4, "unit": "µg/mL"}, {"measurement": "Minimum Inhibitory Concentration (MIC)", "setting": "[11]; 10% OligoG", "value": 4, "unit": "µg/mL"}, {"measurement": "Minimum Inhibitory Concentration (MIC)", "setting": "C. tropicalis AG1 (oral); 0% OligoG", "value": 8, "unit": "µg/mL"}, {"measurement": "Minimum Inhibitory Concentration (MIC)", "setting": "C. tropicalis AG1 (oral); 2% OligoG", "value": 8, "unit": "µg/mL"}, {"measurement": "Minimum Inhibitory Concentration (MIC)", "setting": "C. tropicalis AG1 (oral); 6% OligoG", "value": 4, "unit": "µg/mL"}, {"measurement": "Minimum Inhibitory Concentration (MIC)", "setting": "C. tropicalis AG1 (oral); 10% OligoG", "value": 2, "unit": "µg/mL"}]}
